Test results from ChEMBL document CHEMBL5465560, “Selectivity Literature for EUbOPEN Chemogenomic Library” (2024).

Key:
[1] = target: Calcium/calmodulin-dependent protein kinase kinase 2 (Homo sapiens) (UniProt Q96RR4); conditions: at 10 µM
[2] = target: DNA (cytosine-5)-methyltransferase 3B (Homo sapiens) (UniProt Q9UBC3); test: Selectivity interaction (Methyltransferase screen (Scintillation proximity assays)) EUB0000255b DNMT3B
[3] = target: T1, Mitogen-activated protein kinase kinase kinase 3 (Homo sapiens) (UniProt Q99759); test: Selectivity interaction (KinomeScan (DiscoverX)) EUB0000229b MAP3K3; conditions: at 10 µM
T1 sequence (whole entry): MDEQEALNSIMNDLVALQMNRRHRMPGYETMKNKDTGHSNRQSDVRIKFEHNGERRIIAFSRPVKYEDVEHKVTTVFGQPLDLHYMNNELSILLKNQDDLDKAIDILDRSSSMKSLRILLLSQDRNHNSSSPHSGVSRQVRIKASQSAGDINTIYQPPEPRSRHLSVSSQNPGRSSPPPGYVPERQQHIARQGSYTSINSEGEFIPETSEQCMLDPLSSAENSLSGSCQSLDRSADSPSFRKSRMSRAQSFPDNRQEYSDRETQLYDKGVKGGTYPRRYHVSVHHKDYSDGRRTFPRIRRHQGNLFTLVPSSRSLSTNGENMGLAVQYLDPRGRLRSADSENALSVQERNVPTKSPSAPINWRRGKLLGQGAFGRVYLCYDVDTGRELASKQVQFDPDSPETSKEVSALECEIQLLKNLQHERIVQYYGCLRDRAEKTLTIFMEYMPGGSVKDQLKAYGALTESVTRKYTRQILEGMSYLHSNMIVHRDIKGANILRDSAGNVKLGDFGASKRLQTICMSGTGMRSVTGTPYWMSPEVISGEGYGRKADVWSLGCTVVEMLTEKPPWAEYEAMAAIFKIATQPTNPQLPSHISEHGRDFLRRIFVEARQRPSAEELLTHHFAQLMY

[4] = target: T2, Dual specificity mitogen-activated protein kinase kinase 5 (Homo sapiens) (UniProt Q13163); test: Selectivity interaction (KinomeScan (DiscoverX)) EUB0000666a MAP2K5; conditions: at 10 µM
T2 sequence (whole entry): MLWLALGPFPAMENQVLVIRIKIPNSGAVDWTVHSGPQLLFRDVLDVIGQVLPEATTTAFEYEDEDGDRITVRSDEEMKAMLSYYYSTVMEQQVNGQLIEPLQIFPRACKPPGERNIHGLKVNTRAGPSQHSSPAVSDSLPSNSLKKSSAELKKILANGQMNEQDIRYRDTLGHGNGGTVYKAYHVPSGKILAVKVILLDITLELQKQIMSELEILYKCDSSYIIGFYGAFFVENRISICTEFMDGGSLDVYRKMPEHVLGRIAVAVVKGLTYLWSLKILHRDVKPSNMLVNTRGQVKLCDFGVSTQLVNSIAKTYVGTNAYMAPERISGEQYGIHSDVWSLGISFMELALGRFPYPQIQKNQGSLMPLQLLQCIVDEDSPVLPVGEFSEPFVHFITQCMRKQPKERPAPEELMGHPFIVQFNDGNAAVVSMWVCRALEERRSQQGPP

[5] = target: Phosphatidylinositol 4-phosphate 3-kinase C2 domain-containing subunit beta (Homo sapiens) (UniProt O00750); conditions: at 10 µM
[6] = target: Ribosomal protein S6 kinase alpha-2 (Homo sapiens) (UniProt Q15349); test: Selectivity interaction (ActivX KiNativ screen (kinase selectivity in THP-1 cell lysates)) EUB0000639a RPS6KA2; assay type: subcellular; conditions: lysate, at 1 µM
[7] = target: T3, Serine/threonine-protein kinase Sgk3 (Homo sapiens) (UniProt Q96BR1); test: Selectivity interaction (ActivX KiNativ screen (kinase selectivity in THP-1 cell lysates)) EUB0000639a SGK3; assay type: subcellular; conditions: lysate, at 0.04 µM
T3 sequence (whole entry): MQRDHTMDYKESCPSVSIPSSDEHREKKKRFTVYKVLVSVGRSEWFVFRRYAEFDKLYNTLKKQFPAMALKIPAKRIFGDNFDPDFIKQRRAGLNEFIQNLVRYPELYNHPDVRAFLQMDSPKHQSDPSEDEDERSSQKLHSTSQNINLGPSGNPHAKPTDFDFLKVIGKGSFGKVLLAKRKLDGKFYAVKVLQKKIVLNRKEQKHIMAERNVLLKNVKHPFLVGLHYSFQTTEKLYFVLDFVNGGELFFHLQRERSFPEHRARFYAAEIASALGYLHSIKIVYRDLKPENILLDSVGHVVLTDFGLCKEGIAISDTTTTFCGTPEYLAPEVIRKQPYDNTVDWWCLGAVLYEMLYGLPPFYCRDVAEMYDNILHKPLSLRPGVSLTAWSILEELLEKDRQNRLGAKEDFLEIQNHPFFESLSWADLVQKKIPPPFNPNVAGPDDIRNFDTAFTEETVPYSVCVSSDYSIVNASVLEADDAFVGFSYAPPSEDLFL

Mu-type opioid receptor = Mu-type opioid receptor (Homo sapiens, UniProt P35372); test: Selectivity interaction (Panel of kinases, GPCRs, ion channels and transporters (enzymatic assay)) EUB0000223bCl OPRM1
[8] = target: Protein kinase C beta type (Homo sapiens, UniProt P05771); test: Selectivity interaction (SelectScreen profiling (Invitrogen)) EUB0000607a PRKCB; conditions: at 2 µM
[9] = target: Hepatocyte growth factor receptor (Homo sapiens, UniProt P08581); conditions: at 10 µM
[10] = target: [Pyruvate dehydrogenase (acetyl-transferring)] kinase isozyme 1, mitochondrial (Homo sapiens, UniProt Q15118); test: Selectivity interaction (Kinase screening (Upstate/Millipore)) EUB0000604a PDK1
[11] = target: T4, Histone-arginine methyltransferase CARM1 (Homo sapiens) (UniProt Q86X55); conditions: KMS-20, at 3 µM
T4 sequence (whole entry): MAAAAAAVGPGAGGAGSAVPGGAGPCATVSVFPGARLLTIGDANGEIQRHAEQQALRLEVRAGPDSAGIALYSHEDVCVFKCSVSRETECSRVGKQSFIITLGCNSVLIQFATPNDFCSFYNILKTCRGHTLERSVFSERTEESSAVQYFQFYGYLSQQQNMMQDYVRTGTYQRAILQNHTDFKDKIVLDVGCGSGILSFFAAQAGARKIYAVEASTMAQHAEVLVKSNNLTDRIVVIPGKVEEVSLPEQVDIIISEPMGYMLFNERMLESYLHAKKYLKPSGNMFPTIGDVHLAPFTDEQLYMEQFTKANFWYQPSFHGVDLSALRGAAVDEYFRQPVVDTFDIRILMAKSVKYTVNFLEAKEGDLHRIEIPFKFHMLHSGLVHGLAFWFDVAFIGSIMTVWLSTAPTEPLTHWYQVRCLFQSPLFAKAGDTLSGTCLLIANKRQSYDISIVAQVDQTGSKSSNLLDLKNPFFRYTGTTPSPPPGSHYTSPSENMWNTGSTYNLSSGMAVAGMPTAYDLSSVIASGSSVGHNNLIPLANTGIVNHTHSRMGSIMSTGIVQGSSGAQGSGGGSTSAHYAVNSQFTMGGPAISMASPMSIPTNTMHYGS

Sequence of Hepatocyte growth factor receptor (P08581 whole entry): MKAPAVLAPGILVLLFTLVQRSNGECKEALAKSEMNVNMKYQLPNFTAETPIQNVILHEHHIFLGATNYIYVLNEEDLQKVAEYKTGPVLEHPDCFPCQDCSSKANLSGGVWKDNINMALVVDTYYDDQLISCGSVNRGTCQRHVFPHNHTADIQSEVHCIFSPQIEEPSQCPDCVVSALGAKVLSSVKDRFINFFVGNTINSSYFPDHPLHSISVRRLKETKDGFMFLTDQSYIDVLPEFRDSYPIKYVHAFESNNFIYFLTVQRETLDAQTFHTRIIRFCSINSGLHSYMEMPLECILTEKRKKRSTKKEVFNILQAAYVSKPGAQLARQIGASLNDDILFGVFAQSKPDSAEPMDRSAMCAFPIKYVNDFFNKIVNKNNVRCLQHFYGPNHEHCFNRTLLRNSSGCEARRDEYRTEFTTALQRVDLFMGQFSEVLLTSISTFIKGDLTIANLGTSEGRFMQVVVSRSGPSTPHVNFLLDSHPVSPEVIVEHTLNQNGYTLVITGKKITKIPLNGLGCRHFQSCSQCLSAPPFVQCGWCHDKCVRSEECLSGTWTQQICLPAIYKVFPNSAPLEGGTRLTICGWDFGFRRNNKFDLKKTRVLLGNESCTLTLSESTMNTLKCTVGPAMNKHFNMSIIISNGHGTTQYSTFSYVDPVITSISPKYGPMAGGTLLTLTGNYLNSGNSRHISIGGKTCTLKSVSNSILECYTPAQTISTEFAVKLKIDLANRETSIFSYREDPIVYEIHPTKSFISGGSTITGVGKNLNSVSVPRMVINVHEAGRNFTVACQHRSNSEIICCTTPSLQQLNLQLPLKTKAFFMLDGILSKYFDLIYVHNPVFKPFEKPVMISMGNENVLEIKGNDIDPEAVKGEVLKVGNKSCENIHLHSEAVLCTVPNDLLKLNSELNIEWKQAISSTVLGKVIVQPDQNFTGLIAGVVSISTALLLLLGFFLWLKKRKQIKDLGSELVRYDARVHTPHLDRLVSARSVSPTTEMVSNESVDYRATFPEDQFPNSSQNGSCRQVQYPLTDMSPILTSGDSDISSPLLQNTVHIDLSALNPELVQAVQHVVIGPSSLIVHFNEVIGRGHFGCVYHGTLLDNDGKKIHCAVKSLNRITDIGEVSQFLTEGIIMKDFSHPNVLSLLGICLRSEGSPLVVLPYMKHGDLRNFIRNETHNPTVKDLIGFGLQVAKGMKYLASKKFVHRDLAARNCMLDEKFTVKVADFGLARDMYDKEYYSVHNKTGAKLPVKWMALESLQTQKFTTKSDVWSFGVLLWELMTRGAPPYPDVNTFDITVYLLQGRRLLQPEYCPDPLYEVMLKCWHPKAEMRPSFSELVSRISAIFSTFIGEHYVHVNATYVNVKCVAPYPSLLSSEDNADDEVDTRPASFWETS
Sequence of Mu-type opioid receptor (P35372 whole entry): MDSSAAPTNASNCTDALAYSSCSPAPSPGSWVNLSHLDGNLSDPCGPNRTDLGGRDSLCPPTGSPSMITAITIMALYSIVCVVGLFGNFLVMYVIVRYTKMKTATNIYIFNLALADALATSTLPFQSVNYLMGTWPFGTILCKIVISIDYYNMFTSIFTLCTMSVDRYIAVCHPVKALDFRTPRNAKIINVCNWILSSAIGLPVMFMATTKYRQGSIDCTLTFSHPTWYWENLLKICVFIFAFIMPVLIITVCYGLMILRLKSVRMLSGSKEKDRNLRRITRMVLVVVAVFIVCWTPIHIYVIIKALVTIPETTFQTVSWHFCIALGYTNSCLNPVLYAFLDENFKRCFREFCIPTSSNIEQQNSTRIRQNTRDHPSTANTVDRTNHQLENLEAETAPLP
Sequence of Protein kinase C beta type (P05771 2-671 limits assumed): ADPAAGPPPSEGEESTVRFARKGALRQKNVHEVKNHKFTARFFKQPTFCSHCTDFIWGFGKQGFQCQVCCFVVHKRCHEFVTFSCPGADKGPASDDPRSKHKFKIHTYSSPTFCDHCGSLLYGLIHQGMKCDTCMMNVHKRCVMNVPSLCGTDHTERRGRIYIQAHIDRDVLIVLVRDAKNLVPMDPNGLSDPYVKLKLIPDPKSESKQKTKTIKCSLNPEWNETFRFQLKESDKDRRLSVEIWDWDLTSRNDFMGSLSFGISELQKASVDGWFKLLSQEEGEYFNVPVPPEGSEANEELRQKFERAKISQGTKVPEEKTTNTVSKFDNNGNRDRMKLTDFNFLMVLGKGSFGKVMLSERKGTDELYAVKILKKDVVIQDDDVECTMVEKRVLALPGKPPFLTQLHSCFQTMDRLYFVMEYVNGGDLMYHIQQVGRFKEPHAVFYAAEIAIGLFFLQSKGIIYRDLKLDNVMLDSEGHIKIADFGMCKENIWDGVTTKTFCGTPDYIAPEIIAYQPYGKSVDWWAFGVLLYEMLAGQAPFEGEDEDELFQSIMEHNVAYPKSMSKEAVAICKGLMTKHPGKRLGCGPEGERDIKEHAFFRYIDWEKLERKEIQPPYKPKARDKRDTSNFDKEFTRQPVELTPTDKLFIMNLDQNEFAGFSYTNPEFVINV
Sequence of Calcium/calmodulin-dependent protein kinase kinase 2 (Homo sapiens) (Q96RR4 2-588 limits assumed): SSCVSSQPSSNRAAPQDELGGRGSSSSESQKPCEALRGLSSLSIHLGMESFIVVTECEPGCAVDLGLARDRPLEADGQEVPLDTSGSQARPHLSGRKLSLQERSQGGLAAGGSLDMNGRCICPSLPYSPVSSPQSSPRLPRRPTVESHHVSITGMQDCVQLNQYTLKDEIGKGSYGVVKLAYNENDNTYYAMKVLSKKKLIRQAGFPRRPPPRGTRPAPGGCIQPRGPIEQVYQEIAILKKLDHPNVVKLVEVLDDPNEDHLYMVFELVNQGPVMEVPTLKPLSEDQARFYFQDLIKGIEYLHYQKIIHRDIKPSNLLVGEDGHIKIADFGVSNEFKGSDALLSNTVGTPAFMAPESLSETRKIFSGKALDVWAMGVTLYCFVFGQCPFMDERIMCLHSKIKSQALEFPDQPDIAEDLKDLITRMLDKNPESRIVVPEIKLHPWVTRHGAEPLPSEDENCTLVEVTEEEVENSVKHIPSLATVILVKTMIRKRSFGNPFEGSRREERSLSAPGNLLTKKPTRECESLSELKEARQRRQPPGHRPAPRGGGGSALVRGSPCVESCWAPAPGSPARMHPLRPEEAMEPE
Sequence of Phosphatidylinositol 4-phosphate 3-kinase C2 domain-containing subunit beta (Homo sapiens) (O00750 whole entry, the tested form may be a part): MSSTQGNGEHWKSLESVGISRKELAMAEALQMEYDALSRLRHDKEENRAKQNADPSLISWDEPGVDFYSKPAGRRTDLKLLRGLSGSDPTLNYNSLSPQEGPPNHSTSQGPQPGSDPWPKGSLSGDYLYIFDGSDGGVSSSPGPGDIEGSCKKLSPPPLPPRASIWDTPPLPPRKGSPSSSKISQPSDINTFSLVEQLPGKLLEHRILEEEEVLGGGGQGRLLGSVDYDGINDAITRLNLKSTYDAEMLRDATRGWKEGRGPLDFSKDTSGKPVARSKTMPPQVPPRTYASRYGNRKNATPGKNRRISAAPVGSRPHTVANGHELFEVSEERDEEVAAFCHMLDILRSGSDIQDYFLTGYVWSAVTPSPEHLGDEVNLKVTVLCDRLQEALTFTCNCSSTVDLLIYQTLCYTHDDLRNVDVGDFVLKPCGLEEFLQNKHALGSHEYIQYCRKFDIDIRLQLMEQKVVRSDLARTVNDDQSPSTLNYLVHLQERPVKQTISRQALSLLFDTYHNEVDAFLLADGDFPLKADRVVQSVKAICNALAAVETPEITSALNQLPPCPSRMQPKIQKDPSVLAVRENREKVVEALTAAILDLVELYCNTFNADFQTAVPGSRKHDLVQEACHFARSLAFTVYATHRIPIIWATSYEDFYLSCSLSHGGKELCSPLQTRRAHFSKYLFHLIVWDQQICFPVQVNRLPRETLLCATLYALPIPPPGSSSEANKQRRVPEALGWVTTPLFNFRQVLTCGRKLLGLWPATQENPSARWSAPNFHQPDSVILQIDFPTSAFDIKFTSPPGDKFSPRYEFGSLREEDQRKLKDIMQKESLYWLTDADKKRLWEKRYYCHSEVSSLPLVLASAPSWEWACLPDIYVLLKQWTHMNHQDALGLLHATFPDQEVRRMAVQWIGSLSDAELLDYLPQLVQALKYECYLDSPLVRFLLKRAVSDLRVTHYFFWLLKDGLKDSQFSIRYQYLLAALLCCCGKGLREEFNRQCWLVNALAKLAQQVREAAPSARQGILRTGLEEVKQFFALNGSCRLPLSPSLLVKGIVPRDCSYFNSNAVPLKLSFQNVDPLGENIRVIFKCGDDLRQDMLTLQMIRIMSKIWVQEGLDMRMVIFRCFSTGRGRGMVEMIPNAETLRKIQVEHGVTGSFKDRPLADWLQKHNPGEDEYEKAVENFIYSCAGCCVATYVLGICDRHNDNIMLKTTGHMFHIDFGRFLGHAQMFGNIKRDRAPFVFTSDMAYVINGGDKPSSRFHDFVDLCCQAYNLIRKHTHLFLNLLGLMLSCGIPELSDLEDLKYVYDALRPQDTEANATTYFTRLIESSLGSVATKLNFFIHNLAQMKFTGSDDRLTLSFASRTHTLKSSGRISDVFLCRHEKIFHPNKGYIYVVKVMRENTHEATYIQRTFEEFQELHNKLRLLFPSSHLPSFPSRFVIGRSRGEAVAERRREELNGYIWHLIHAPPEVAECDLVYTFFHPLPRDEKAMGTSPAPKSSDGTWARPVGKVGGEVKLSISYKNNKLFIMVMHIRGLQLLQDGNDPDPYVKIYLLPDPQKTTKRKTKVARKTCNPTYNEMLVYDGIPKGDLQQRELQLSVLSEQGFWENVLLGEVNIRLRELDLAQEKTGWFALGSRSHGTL

CCN(CC)CCCCNc1ncc2cc(-c3cc(OC)cc(OC)c3)c(NC(=O)NC(C)(C)C)nc2n1 showed a % of control [1] of 100%.

In the case of COCCN1CCC(c2cc(CN(C)C(=O)c3cccc(Oc4ccccc4)c3)ccn2)CC1, the % activity ([2]; at 1 µM) is reported as greater than 95% and the % activity ([2]; at 10 µM) is reported as greater than 85%.

Work on COc1cc(N(C)c2ccnc3ccc(C(F)(F)F)cc23)cc(OC)c1OC yielded a % binding [3] of 89%.

Work on O=C(NOC[C@H](O)CO)c1ccc(F)c(F)c1Nc1ccc(I)cc1F yielded a % of control [4] of 86%.

Cc1cc([C@@H](C)Nc2ccccc2C(=O)O)c2nc(N3CCOCC3)cc(=O)n2c1 [AZD-6482] gave a % of control [5] of 0.4%.

CC[C@@H]1[C@H](F)C(=O)N[C@@H]1COc1nccc2cc(C(N)=O)c(OC)cc12 [ZIMLOVISERTIB] gave a % of inhibition [6] of 8% and a % of inhibition [7] of 3.1%.

In the case of COc1cc(C(=O)N2CC[C@@H](O)[C@@H](N)C2)cc2nc(-c3cc4ccccc4n3CC3CC3)n(C)c12, the pXC50 (Mu-type opioid receptor) is reported as less than 4 M.

With CNC(=O)Nc1ccc(-c2nc(N3CC4CCC(C3)O4)c3cnn(C4CCC5(CC4)OCCO5)c3n2)cc1 the % of inhibition [8] was 9%.

Work on COCC(=O)NC/C=C/c1ccc2ncnc(Nc3ccc(Oc4ccc(C)nc4)c(C)c3)c2c1 [CP-724714] yielded a % of control [9] of 74%.

Compound Cc1cnc(Nc2ccc(F)cc2Cl)nc1-c1c[nH]c(C(=O)N[C@H](CO)c2cccc(Cl)c2)c1 has a % of inhibition [10] of 10%.

In the case of CNCCN1CCC(c2cc(CN(C)C(=O)c3cccc(Oc4ccccc4)c3)ccn2)CC1, the % of growth rate [11] is reported as -22.5%.
